# Data from ChEMBL document CHEMBL5532664, “Discovery, Optimization, and Evaluation of Potent and Selective DNA-PK Inhibitors in Combination with Chemotherapy or Radiotherapy for the Treatment of Malignancies” (J Med Chem, 2024).
# Active and inactive are the calls of the source. No cut-off for these calls is given here.
# Key:
# in vivo [1] = settings: Sprague-Dawley, rat, iv, 5 mg/kg
# in vivo [2] = settings: Sprague-Dawley, rat, iv, 5 mg/kg; remark: listed apart in the source
# in vivo [3] = settings: Sprague-Dawley, rat, po, 5 mg/kg
# in vivo [4] = settings: Sprague-Dawley, rat, po, 5 mg/kg; remark: listed apart in the source
# NCI-H460 = assay: Antitumor activity against human NCI-H460 cells xenografted in BALB/ c nude mouse assessed as inhibition of tumor growth at 100 mg/kg, po administered once daily with 2 Gy irradiation and measured upto 7 days by vernier caliper analysis; type: functional, organism-based; settings: time <= 7.0 day
# HCT-116 [5] = assay: Inhibition of colony formation in human HCT-116 cells at […] preincubated with compound for 1 hr followed by exposure to 2 Gy gamma irradiation and measured after 7 days by crystal violet staining based chemiluminescence assay relative to control; type: functional; settings: HCT-116, light or radiation study, dose 0.25 µM, time 169 hrs
# A549 [6] = assay: Antitumor activity against human A549 cells xenografted in BALB/c nude mouse assessed as tumor growth inhibition at 15 mg/kg, po administered once daily measured upto 26 days in presence of paclitaxel by vernier caliper analysis relative to control; type: functional; settings: A549, 624 h, time <= 26 day, read-out: TGI
# [7] = rat, in vivo, po, 5 mg/kg, 24 h
# [8] = Toxicity in BALB/c nude mouse assessed as effect on body weight loss at 15 mg/kg, po measured upto 28 days […]; type: organism-based; settings: in vivo, 672 h, time < 28 day
# HCT-116 [9] = assay: Inhibition of colony formation in human HCT-116 cells preincubated with compound for 1 hr followed by exposure to 2 Gy gamma irradiation and measured after 7 days by crystal violet staining based chemiluminescence assay; type: functional, cell-based; settings: HCT-116, light or radiation study
# HCT-116 [10] = assay: Inhibition of bleomycin-induced DNA-double stranded breaks in human HCT-116 cells assessed as reduction in gammaH2AX level pretreated for 1 hrs followed by bleomycin addition and measured after 6 hrs Western blot analysis; type: functional, cell-based; settings: dose 0.03-30 µM, time 7.0 hrs
# HCT-116 [11] = assay: Induction of cell cycle arrest in human HCT-116 cells assessed as accumulation of cells G0/G1 phase at 250 nM (reference value: 66.45%); type: functional
# HCT-116 [12] = assay: Induction of cell cycle arrest in human HCT-116 cells assessed as accumulation of cells G0/G1 phase at 2000 nM incubated for 1 hr followed by exposure to 2 Gy gamma irradiation and measured after 48 hrs propidium iodide staining based analysis (reference value: 60.01%); type: functional; settings: time 49 hrs
# HCT-116 [13] = assay: Induction of cell cycle arrest in human HCT-116 cells assessed as accumulation of cells S phase at 2000 nM incubated for 1 hr followed by exposure to 2 Gy gamma irradiation and measured after 48 hrs propidium iodide staining based analysis (reference value: 21.35%); type: functional; settings: time 49 hrs
# A549 [14] = assay: Antitumor activity against human A549 cells xenografted in BALB/c nude mouse assessed as tumor growth inhibition at 7.5 mg/kg, po administered once daily measured upto 26 days in presence of paclitaxel by vernier caliper analysis relative to control; type: functional; settings: A549, 624 h, time <= 26 day, read-out: TGI
# HCT-116 [15] = assay: Induction of cell cycle arrest in human HCT-116 cells assessed as accumulation of cells G0/G1 phase at 2000 nM (reference value: 66.45%); type: functional
# HCT-116 [16] = assay: Induction of cell cycle arrest in human HCT-116 cells assessed as accumulation of cells S phase at 2000 nM (reference value: 19.72%); type: functional
# HCT-116 [17] = assay: Induction of cell cycle arrest in human HCT-116 cells assessed as accumulation of cells G2/M phase at 500 nM incubated for 1 hr followed by exposure to 2 Gy gamma irradiation and measured after 48 hrs propidium iodide staining based analysis (reference value: 18.65%); type: functional; settings: time 49 hrs
# HCT-116 [18] = assay: Induction of cell cycle arrest in human HCT-116 cells assessed as accumulation of cells G2/M phase at 250 nM incubated for 1 hr followed by exposure to 2 Gy gamma irradiation and measured after 48 hrs propidium iodide staining based analysis (reference value: 18.65%); type: functional; settings: time 49 hrs
# HCT-116 [19] = assay: Induction of cell cycle arrest in human HCT-116 cells assessed as accumulation of cells G0/G1 phase at 500 nM (reference value: 66.45%); type: functional
# HCT-116 [20] = assay: Induction of cell cycle arrest in human HCT-116 cells assessed as accumulation of cells G2/M phase at 1000 nM (reference value: […]%); type: functional
# HCT-116 [21] = assay: Induction of cell cycle arrest in human HCT-116 cells assessed as accumulation of cells S phase at 1000 nM (reference value: 19.72%); type: functional
# HCT-116 [22] = assay: Induction of cell cycle arrest in human HCT-116 cells assessed as accumulation of cells G0/G1 phase at 1000 nM (reference value: 66.45%); type: functional
# HCT-116 [23] = assay: Induction of cell cycle arrest in human HCT-116 cells assessed as accumulation of cells G2/M phase at 2000 nM (reference value: […]%); type: functional
# HCT-116 [24] = assay: Induction of cell cycle arrest in human HCT-116 cells assessed as accumulation of cells G2/M phase at 500 nM (reference value: […]%); type: functional
# HCT-116 [25] = assay: Induction of cell cycle arrest in human HCT-116 cells assessed as accumulation of cells S phase at 250 nM (reference value: 19.72%); type: functional
# HCT-116 [26] = assay: Induction of cell cycle arrest in human HCT-116 cells assessed as accumulation of cells G2/M phase at 2000 nM incubated for 1 hr followed by exposure to 2 Gy gamma irradiation and measured after 48 hrs propidium iodide staining based analysis (reference value: 18.65%); type: functional; settings: time 49 hrs
# HCT-116 [27] = assay: Induction of cell cycle arrest in human HCT-116 cells assessed as accumulation of cells G0/G1 phase at 1000 nM incubated for 1 hr followed by exposure to 2 Gy gamma irradiation and measured after 48 hrs propidium iodide staining based analysis (reference value: 60.01%); type: functional; settings: time 49 hrs
# HCT-116 [28] = assay: Induction of cell cycle arrest in human HCT-116 cells assessed as accumulation of cells S phase at 500 nM incubated for 1 hr followed by exposure to 2 Gy gamma irradiation and measured after 48 hrs propidium iodide staining based analysis (reference value: 21.35%); type: functional; settings: time 49 hrs
# HCT-116 [29] = assay: Induction of cell cycle arrest in human HCT-116 cells assessed as accumulation of cells S phase at 1000 nM incubated for 1 hr followed by exposure to 2 Gy gamma irradiation and measured after 48 hrs propidium iodide staining based analysis (reference value: 21.35%); type: functional; settings: time 49 hrs
# HCT-116 [30] = assay: Induction of cell cycle arrest in human HCT-116 cells assessed as accumulation of cells G2/M phase at 1000 nM incubated for 1 hr followed by exposure to 2 Gy gamma irradiation and measured after 48 hrs propidium iodide staining based analysis (reference value: 18.65%); type: functional; settings: time 49 hrs
# HCT-116 [31] = assay: Induction of cell cycle arrest in human HCT-116 cells assessed as accumulation of cells G2/M phase at 250 nM (reference value: […]%); type: functional
# HCT-116 [32] = assay: Induction of cell cycle arrest in human HCT-116 cells assessed as accumulation of cells S phase at 500 nM (reference value: 19.72%); type: functional
# BT-474 = assay: Antitumor activity against human BT-474 cells xenografted in BALB/c nude mouse assessed as inhibition of tumor growth at 0.25 to 12.5 mg/kg, po measured upto 10 days in presence of liposome doxorubicin by vernier caliper analysis; type: functional, organism-based; settings: dose lower […], dose upper 12.5 mg/kg, time <= 10.0 day
# HCT-116 [33] = assay: Induction of cell cycle arrest in human HCT-116 cells assessed as accumulation of cells S phase at 250 nM incubated for 1 hr followed by exposure to 2 Gy gamma irradiation and measured after 48 hrs propidium iodide staining based analysis (reference value: 21.35%); type: functional; settings: time 49 hrs
# HCT-116 [34] = assay: Induction of cell cycle arrest in human HCT-116 cells assessed as accumulation of cells G0/G1 phase at 250 nM incubated for 1 hr followed by exposure to 2 Gy gamma irradiation and measured after 48 hrs propidium iodide staining based analysis (reference value: 60.01%); type: functional; settings: time 49 hrs
# HCT-116 [35] = assay: Induction of cell cycle arrest in human HCT-116 cells assessed as accumulation of cells G0/G1 phase at 500 nM incubated for 1 hr followed by exposure to 2 Gy gamma irradiation and measured after 48 hrs propidium iodide staining based analysis (reference value: 60.01%); type: functional; settings: time 49 hrs
# in vivo [36] = settings: Sprague-Dawley, rat, plasma, po, 5 mg/kg
# Description: Clearance in Sprague-Dawley rat plasma at 5 mg/kg, po measured upto 24 hrs by LC-MS/MS analysis
# in vivo [37] = settings: Sprague-Dawley, rat, plasma, iv, 5 mg/kg
# Description: Clearance in Sprague-Dawley rat plasma at 5 mg/kg, iv measured upto 24 hrs by LC-MS/MS analysis
# in vivo [38] = settings: Sprague-Dawley, rat, po, 5 mg/kg; remark: listed apart in the source
# [39] = biological target: DNA-dependent protein kinase catalytic subunit (Homo sapiens, UniProt P78527)
# Description: Inhibition of human DNA-PK incubated for 30 mins in presence of Mg/ATP by HTRF method
# in vivo [40] = settings: Sprague-Dawley, rat, iv, 5 mg/kg; remark: listed apart in the source
# hERG (KCNH2) = hERG (KCNH2) (Homo sapiens, UniProt Q12809); assay: in vitro
# Description: Inhibition of human ERG at 20 uM relative to control
# in vivo [41] = settings: Sprague-Dawley, rat, po, 5 mg/kg; remark: listed apart in the source
# in vitro = settings: human, liver microsomes
# Sequence of DNA-dependent protein kinase catalytic subunit (P78527 whole entry): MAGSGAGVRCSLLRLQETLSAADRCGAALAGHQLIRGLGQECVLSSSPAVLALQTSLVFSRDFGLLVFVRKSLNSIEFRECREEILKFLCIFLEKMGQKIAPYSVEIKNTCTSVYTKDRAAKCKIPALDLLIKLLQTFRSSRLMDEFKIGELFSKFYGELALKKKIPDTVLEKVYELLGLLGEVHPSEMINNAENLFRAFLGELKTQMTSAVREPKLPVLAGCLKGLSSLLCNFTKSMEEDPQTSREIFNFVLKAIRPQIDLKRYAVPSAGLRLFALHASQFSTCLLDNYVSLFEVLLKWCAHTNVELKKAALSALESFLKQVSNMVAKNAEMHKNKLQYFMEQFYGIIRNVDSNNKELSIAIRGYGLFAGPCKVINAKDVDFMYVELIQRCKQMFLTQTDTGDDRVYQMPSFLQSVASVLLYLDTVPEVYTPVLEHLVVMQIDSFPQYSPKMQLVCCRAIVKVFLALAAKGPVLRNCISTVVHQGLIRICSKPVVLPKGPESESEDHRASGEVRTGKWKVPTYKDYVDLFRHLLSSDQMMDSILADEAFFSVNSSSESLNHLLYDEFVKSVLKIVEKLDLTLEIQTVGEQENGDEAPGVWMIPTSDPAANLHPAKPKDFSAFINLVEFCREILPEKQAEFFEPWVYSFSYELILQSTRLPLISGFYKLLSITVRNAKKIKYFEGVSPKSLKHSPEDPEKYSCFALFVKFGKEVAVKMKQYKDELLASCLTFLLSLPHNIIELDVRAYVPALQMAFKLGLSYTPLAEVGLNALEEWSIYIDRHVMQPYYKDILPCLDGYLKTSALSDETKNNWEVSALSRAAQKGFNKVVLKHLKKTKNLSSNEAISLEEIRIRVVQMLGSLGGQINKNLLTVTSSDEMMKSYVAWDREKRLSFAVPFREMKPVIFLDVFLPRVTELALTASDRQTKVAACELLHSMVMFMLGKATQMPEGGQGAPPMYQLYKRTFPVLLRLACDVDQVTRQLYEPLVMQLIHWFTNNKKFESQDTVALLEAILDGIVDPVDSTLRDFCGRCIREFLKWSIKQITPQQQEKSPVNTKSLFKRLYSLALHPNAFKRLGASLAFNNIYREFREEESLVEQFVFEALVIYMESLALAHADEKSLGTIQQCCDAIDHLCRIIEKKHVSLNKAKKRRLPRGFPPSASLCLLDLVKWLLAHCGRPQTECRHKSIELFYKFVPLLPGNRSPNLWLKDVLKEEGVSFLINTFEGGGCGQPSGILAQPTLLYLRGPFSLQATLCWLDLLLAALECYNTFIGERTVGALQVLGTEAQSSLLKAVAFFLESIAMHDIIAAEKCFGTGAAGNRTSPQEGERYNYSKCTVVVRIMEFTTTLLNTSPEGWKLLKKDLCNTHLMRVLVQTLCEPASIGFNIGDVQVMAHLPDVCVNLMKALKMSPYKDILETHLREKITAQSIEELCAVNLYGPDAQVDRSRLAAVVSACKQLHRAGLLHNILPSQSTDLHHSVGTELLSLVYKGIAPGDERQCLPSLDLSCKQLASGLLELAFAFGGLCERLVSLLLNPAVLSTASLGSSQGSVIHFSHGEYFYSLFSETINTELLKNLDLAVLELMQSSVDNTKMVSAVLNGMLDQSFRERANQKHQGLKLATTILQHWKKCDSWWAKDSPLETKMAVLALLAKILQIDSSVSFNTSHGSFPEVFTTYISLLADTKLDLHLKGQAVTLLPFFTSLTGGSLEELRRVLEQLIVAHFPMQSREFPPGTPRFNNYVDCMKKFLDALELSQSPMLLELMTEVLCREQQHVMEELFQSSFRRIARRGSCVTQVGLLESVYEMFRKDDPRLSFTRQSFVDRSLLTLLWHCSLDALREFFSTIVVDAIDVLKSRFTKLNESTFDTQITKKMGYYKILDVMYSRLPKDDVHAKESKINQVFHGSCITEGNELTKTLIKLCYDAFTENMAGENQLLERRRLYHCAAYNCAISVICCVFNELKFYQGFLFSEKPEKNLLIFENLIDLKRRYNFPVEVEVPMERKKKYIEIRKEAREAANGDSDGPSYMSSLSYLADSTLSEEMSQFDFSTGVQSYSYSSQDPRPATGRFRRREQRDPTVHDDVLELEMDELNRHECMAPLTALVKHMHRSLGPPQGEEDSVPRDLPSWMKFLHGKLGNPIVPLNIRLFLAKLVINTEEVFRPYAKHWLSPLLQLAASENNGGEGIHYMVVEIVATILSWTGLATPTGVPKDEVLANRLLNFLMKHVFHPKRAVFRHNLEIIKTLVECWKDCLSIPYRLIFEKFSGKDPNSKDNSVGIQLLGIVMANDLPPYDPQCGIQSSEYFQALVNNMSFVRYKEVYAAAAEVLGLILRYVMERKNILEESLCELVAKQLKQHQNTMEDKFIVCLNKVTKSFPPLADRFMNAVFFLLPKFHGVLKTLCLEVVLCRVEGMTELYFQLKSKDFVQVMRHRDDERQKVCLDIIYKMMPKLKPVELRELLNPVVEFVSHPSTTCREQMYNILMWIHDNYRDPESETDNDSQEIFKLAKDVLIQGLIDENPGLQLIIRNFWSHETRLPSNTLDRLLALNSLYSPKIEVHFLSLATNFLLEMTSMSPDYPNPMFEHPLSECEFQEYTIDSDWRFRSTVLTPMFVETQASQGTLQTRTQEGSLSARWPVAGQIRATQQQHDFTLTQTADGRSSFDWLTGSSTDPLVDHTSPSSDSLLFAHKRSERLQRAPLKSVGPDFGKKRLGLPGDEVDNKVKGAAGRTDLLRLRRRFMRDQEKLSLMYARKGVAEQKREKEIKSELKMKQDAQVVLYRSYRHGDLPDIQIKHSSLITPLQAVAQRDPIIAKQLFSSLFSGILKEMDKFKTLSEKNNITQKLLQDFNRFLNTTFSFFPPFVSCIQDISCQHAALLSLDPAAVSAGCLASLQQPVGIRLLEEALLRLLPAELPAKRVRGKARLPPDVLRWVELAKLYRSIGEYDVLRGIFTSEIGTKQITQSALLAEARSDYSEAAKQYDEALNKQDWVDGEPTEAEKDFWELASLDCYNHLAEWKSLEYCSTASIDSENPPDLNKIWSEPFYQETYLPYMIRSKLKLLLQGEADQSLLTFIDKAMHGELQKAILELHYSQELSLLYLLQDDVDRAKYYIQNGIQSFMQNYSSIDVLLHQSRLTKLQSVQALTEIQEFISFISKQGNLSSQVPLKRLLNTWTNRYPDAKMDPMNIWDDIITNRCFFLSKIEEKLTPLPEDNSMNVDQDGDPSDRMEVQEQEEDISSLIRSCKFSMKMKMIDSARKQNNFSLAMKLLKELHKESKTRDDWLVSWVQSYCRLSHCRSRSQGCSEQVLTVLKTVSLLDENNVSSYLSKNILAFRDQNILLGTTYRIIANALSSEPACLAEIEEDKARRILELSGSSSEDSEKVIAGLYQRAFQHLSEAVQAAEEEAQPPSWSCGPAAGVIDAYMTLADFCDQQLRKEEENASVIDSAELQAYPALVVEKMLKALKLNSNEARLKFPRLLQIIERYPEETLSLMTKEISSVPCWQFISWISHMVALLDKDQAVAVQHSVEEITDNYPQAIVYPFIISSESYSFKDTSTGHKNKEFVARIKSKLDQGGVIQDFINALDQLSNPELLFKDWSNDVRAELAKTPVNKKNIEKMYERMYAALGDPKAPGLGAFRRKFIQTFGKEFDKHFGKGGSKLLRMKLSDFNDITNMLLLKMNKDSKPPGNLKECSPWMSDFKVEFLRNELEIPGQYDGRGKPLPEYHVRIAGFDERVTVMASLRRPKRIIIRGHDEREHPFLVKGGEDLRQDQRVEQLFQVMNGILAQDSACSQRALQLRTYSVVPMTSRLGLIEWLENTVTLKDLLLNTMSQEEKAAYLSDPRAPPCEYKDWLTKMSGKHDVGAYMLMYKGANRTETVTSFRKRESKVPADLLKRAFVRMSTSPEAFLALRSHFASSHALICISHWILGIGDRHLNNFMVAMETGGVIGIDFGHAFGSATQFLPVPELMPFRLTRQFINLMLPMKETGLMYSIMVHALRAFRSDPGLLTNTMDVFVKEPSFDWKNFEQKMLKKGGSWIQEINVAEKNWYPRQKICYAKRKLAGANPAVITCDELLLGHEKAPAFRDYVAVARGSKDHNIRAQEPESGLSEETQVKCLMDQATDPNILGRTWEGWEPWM
structure (smiles),measurement,setting,value
Cc1cc2ncnn2cc1Nc1ncc2c(n1)n(C1CCOCC1)c(=O)n2C [AZD-7648],AUC(0-t) at 24 h,in vivo [1],3150 ng·h/mL
same,Cmax at 24 h,in vivo [2],2620 ng/mL
same,Cmax at 24 h,in vivo [3],836 ng/mL
same,bioavailability at 24 h,in vivo [4],78.1%
same,Activity,NCI-H460,Active
same,inhibition at […],HCT-116 [5],98.2%
same,inhibition in vivo at 15 mg/kg,A549 [6],46.1%
same,AUCt,[7],2458.98 µg·h/L
same,Activity,[8],Non-Toxic
same,IC50,HCT-116 [9],38.1 nM
Cc1cc(-c2cnn(C)c2)ncc1Nc1ncc2c(n1)n(C1CCOCC1)c(=O)n2C,inhibition,HCT-116 [10],Dose-Dependent Effect
same,Activity,HCT-116 [11],65.15%
same,Activity,HCT-116 [12],24.76%
same,Activity,HCT-116 [13],9.03%
same,inhibition in vivo at 7.5 mg/kg,A549 [14],78.8%
same,Activity,HCT-116 [15],60.62%
same,Activity,HCT-116 [16],22.92%
same,Activity,HCT-116 [17],30.99%
same,Activity,HCT-116 [18],21.65%
same,Activity,HCT-116 [19],60.76%
same,Activity,HCT-116 [20],14.91%
same,Activity,HCT-116 [21],21.75%
same,Activity,HCT-116 [22],61.36%
same,Activity,HCT-116 [23],16.46%
same,Activity,NCI-H460,Active
same,Activity,HCT-116 [24],15.5%
same,Activity,HCT-116 [25],19.94%
same,Activity,HCT-116 [26],69.21%
same,Activity,HCT-116 [27],32.64%
same,inhibition at […],HCT-116 [5],99.4%
same,Activity,HCT-116 [28],25.63%
same,Activity,HCT-116 [29],13.82%
same,Activity,HCT-116 [30],53.54%
same,Activity,HCT-116 [31],15.81%
same,Activity,HCT-116 [32],23.44%
same,Activity,BT-474,Active
same,Activity,HCT-116 [33],22.74%
same,IC50,HCT-116 [9],33.3 nM
same,Activity,HCT-116 [34],53.41%
same,Activity,HCT-116 [35],45.35%
Cc1cc(-c2cnn(C(F)F)c2)ncc1Nc1ncc2c(n1)n(C1CCOCC1)c(=O)n2C,CL/F at 24 h,in vivo [36],17.7 mL/min/kg
same,AUC(0-t) at 24 h,in vivo [1],5290 ng·h/mL
same,Cmax at 24 h,in vivo [2],1890 ng/mL
same,Cmax at 24 h,in vivo [3],760 ng/mL
same,bioavailability at 24 h,in vivo [4],84%
same,Activity,NCI-H460,Active
same,clearance at 24 h,in vivo [37],16.3 mL/min/kg
same,half-life at 24 h,in vivo [38],349 min
same,inhibition at […],HCT-116 [5],96.9%
same,IC50,[39],0.4 nM
same,half-life at 24 h,in vivo [40],106 min
same,inhibition at 20 µM,hERG (KCNH2),22.7%
same,AUC(0-t) at 24 h,in vivo [41],4440 ng·h/mL
same,"half-life at 5 min, 1 µM",in vitro,167 min
same,IC50,HCT-116 [9],68 nM
Cc1cc(-c2nc[nH]n2)ccc1Nc1ncc2c(n1)n(C1CCOCC1)c(=O)n2C,CL/F at 24 h,in vivo [36],62 mL/min/kg
same,AUC(0-t) at 24 h,in vivo [1],4060 ng·h/mL
same,Cmax at 24 h,in vivo [2],4290 ng/mL
same,Cmax at 24 h,in vivo [3],733 ng/mL
same,bioavailability at 24 h,in vivo [4],33.2%
same,clearance at 24 h,in vivo [37],20.2 mL/min/kg
same,half-life at 24 h,in vivo [38],223 min
same,inhibition at […],HCT-116 [5],96.9%
same,IC50,[39],0.4 nM
same,half-life at 24 h,in vivo [40],710 min
same,inhibition at 20 µM,hERG (KCNH2),-0.02%
same,AUC(0-t) at 24 h,in vivo [41],1350 ng·h/mL
same,"half-life at 5 min, 1 µM",in vitro,630 min
same,IC50,HCT-116 [9],83.3 nM
